Measurements published in ChEMBL document CHEMBL1155679, “New xenicane diterpenoids from the gorgonian Acalycigorgia inermis” (2000).
≈ marks a conversion by molar mass, not a printed value.

System: K562
Test: Cytotoxicity against human K562 cells
Assay type: functional
Details: read-out: LC50 (the source's name)

With C=C=CCC[C@@H]1C(=O)OC[C@H]2C(=C)CC[C@@H]3O[C@@]3(C)CC[C@H]12 [ACALYCIXENIOLIDE C] as the compound, how does the CC50 read?
The CC50 was 1.6 µg/mL (≈ 5.29 µM).

For C=C=CC/C=C1/C(=O)OC[C@H]2C(=C)CC[C@@H]3O[C@@]3(C)CC[C@H]12 [ACALYCIXENIOLIDE D], which CC50 is on record?
Its CC50 is 52 µg/mL (≈ 173 µM).

With C=C=CCC(OC(C)=O)C1=CO[C@H](OC(C)=O)[C@H]2C(=C)CC[C@@H]3O[C@@]3(C)CC[C@H]12 (some centres undefined) [ACALYCIXENIOLIDE E] as the compound, how does the CC50 read?
The CC50 was 4.7 µg/mL (≈ 11.7 µM).

With C=C1CC[C@@H]2O[C@@]2(C)CC[C@@H]2[C@H](CCC=C(C)C)C(=O)OC[C@@H]12 [ACALYCIXENIOLIDE F] as the compound, how does the CC50 read?
Its CC50 is 0.2 µg/mL (≈ 0.628 µM).
